Where a name gives a salt, the structure may show the parent alone. Read-outs that look alike come from different tables or passages of the source.
Columns and labels:
[1] = target: T1, σ2 receptor (Cavia porcellus, UniProt H0V073); settings: guinea pig brain membranes; cited from earlier work
T1 construct: the guinea pig brain membranes (300 μL, 360 μg protein) were incubated for 120 min at room temperature with 3 nM [^3H]-DTG; from tissue; host or cells: guinea pig brain membranes
T1 sequence (H0V073 1-176): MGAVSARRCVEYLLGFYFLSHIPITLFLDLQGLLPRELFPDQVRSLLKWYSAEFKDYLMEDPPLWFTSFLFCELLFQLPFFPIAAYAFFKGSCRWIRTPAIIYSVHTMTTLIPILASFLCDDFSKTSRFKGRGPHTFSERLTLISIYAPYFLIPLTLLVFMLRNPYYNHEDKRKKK

[2] = system: HREC; settings: cited from earlier work
[3] = system: human UM 92-1 cells; assay: Crystal violet proliferation assay in human UM 92-1 cells; format: cell-based; settings: for effect on 92-1 cell proliferation compared to the vehicle control: VPA 2 mM, HP 10 μM, (±)-HP-mII 30 μM (predicted IC50 values); for effect alone on proliferation of human UM 92-1 cells: 2 μM
Experimental: Then, actions on cell proliferation were examined by crystal violet staining (Figure 6).
HREC and human 92-1 cell (seeded 4 × 10^3 and grown for 24 h at optimum culture conditions) proliferation was measured using crystal violet staining after treatment in 96-well plates with the indicated concentrations of chemicals for an additional 48 h. Control cells received an equal volume of vehicle (DMSO). At the end of the treatment, each well was washed with phosphate-buffered saline (PBS). Following this, the cells were fixed (in 4% paraformaldehyde) and stained with crystal violet solution (0.5% in 20% methanol for HREC or 1% aqueous solution for 92-1 cells). Subsequently, the plate was washed with water and left to dry. Crystal violet staining was evaluated by measuring the absorbance at 570 nm or 590 nm, after crystal violet extraction with 10% acetic acid (at room temperature for 10 min), with a microplate reader with the plate reader (Synergy 2-BioTek). For quantification, each assay was carried out in triplicate.

[4] = system: inoperable UM patients; parameters: method as in PMID 25315663, PMID 23218699, PMID 21880788; settings: at 4 months; cited from earlier work

CCCC(CCC)C(=O)O[C@H](CCCN1CCC(O)(c2ccc(Cl)cc2)CC1)c1ccc(F)cc1 (as salt: oxalate) [(+)-1]
melting point: 159 to 164 °C

CCCC(CCC)C(=O)O[C@@H](CCCN1CCC(O)(c2ccc(Cl)cc2)CC1)c1ccc(F)cc1 (as salt: oxalate) [(−)-1]
melting point: 158 to 160 °C

OC(CCCN1CCC(O)(c2ccc(Cl)cc2)CC1)c1ccc(F)cc1 (racemic) [(±)-HP-mII, haloperidol metabolite II]
Ki [1]: 2.4 ± 0.7 nM
pIC50 ± SE, MTT viability test on HREC ([2]; 48 h): 3.89 ± 0.04
pIC50 ± SE, MTT viability test on HREC ([2]; 72 h): 4.16 ± 0.03
effect on 92-1 cell proliferation compared to the vehicle control [3]: significantly inhibited

O[C@@H](CCCN1CCC(O)(c2ccc(Cl)cc2)CC1)c1ccc(F)cc1 [(−)-4]
Ki [1]: 9.8 ± 1.8 nM

c1ccc(CCN2CCCCC2)cc1 [AC927, 1-phenethylpiperidine, reference compound]
effect alone on proliferation of human UM 92-1 cells [3]: promote

CC(C)=CCN1CC[C@]2(C)c3cc(O)ccc3C[C@H]1[C@H]2C [PTZ, (+)-pentazocine, reference compound]
effect alone on proliferation of human UM 92-1 cells [3]: promote

CCCC(CCC)C(=O)O [VPA, valproic acid]
pIC50 ± SE, MTT viability test on HREC ([2]; 24 h): 2.91 ± 0.01
pIC50 ± SE, MTT viability test on HREC ([2]; 48 h): 2.84 ± 0.03
pIC50 ± SE, MTT viability test on HREC ([2]; 72 h): 2.86 ± 0.01
effect on 92-1 cell proliferation compared to the vehicle control [3]: significantly inhibited

AFL: VEGF-trap aflibercept, a popular drug in ophthalmology
progression-free survival [4]: 50%
